*1 amine or outer side, *2 acyl side, *3 side chain or, on linkers, in order; H or OH if unused. Where a SMILES comes first, the peptide text is derived from it. Bridges are numbered along the chain shown (N, C = ends). [ ]: non-standard residue; d: D form. The star is where a group is joined. hPhe(3-Cl-4-CF3) = N[C@@H](CCc1ccc(C(F)(F)F)c(Cl)c1)C(=O)O; X19 = O=C([C@H](Cc1ccc(C(F)(F)F)cc1)N(CCCF)[*:1])[*:2]; NPrPhe(4-CF3) = CCCN[C@@H](Cc1ccc(C(F)(F)F)cc1)C(=O)O; NMeAbu(4,4,4-F3) = CN[C@@H](CC(F)(F)F)C(=O)O; NMeGly(cPent) = CN[C@H](C(=O)O)C1CCCC1; Pro(4,4-F2) = O=C(O)[C@@H]1CC(F)(F)CN1; NMeD = CN[C@@H](CC(=O)O)C(=O)O; NMeL = CN[C@@H](CC(C)C)C(=O)O; Morpholide = C1CN(*)CCO1; NMeA = CN[C@@H](C)C(=O)O; Ac5c = NC1(C(=O)O)CCCC1; Aze = O=C(O)[C@@H]1CCN1; Ac4c = NC1(C(=O)O)CCC1; NEtG = CCNCC(=O)O; Sar = CNCC(=O)O
Key:
[1] = system: human lung cancer strain NCI-H441; assay type: cell-based
Summary of the method: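 Readout: […] after the ATP-based reagent. Compound: serial dilutions in dimethyl sulfoxide.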

HRAS wild-type protein = HRAS wild-type protein (Homo sapiens, UniProt P01112); experiment: Binding to HRAS by surface plasmon resonance (SPR), KD and KD ratio to KRAS
HRAS wild-type protein, sequence (P01112 whole entry): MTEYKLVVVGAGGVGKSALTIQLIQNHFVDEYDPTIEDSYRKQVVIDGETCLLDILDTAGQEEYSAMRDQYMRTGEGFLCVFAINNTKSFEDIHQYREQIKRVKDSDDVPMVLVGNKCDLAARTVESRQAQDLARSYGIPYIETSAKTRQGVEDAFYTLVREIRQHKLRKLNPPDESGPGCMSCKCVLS
Summary of the method: (§1)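 Affinity is measured by surface plasmon resonance at 30°C against captured, GDP-loaded RAS carrying a biotinylated Avi tag. Compounds are titrated by single-cycle kinetics, and KD comes from a 1:1 fit.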

[2] = target: GDP-bound NRAS wild-type protein (Homo sapiens, UniProt P01111); experiment: Binding to NRAS by surface plasmon resonance (SPR), KD and KD ratio to KRAS
GDP-bound NRAS wild-type protein, sequence (P01111 whole entry): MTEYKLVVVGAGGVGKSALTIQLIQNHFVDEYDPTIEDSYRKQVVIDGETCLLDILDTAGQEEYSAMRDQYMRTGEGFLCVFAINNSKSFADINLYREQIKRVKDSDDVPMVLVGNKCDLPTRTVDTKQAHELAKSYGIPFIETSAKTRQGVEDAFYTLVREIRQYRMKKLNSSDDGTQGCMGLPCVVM
Summary of the method: as §1

[3] = ratio of KD for HRAS wild-type protein to KD for KRAS
[4] = ratio of KD for GDP-bound NRAS wild-type protein to KD for KRAS
[5] = ratio of KD value for HRAS wild-type protein to KD value for KRAS (SPR)
[6] = ratio of KD value for GDP-bound NRAS wild-type protein to KD value for KRAS (SPR)
[7] = ratio of the KD value with respect to HRAS wild-type protein to the KD value with respect to KRAS
[8] = ratio of the KD value with respect to GDP-bound NRAS wild-type protein to the KD value with respect to KRAS

Row | Structure (SMILES) | IC50 [1] [nM] | HRAS /KRAS (HRAS wild-type protein; [3]) | NRAS /KRAS [2, 4] | further results
1 | CCO[C@@H]1C[C@H]2C(=O)NC3(CCC3)C(=O)N(C)[C@@H](C3CCCC3)C(=O)N(C)[C@H](C(=O)N(C)C)CC(=O)N(C)[C@@H](CC)C(=O)N[C@@H]([C@@H](C)CC)C(=O)N(C)CC(=O)N(C)[C@H]3CCCCCN(C3=O)[C@@H](Cc3ccc(C(F)(F)F)cc3)C(=O)N(C)CC(=O)N[C@@H](CCc3c(F)c(F)c(C(F)(F)F)c(F)c3F)C(=O)N2C1 [PP0891] | 154 | B (a compound having 3 or more and less than 10 is denoted as B) | B (a compound having 3 or more and less than 10 is denoted as B) | –
2 | CCO[C@@H]1C[C@H]2C(=O)NC3(CCC3)C(=O)N(C)[C@@H](C(CC)CC)C(=O)N(C)[C@H](C(=O)N3CCOCC3)CC(=O)N(C)[C@@H](CC(C)C)C(=O)N[C@@H]([C@@H](C)CC)C(=O)N(C)CC(=O)N(C)[C@H]3CCCCN(C3=O)[C@@H](Cc3ccc(C(F)(F)F)cc3)C(=O)N(C)CC(=O)N[C@@H](CCc3cc(F)c(C(F)(F)F)c(F)c3)C(=O)N2C1 [PP0811] | 9.8 | B (a compound having 3 or more and less than 10 is denoted as B) | B (a compound having 3 or more and less than 10 is denoted as B) | –
3 | CCO[C@@H]1C[C@H]2C(=O)NC3(CC(C)(C)C3)C(=O)N(C)[C@@H](C3CCCC3)C(=O)N(C)[C@H](C(=O)N(C)C)CC(=O)N(C)[C@@H](CC(C)C)C(=O)N[C@@H]([C@@H](C)CC)C(=O)N(C)CC(=O)N(C)[C@H]3C/C=C\CCN(C3=O)[C@@H](Cc3ccc4c(c3)CCC4(F)F)C(=O)N(C)CC(=O)N[C@@H](CCc3ccc(C(F)(F)F)c(OC)c3)C(=O)N2C1 [PP2695] | 3.8 | B (a compound having 3 or more and less than 10 is denoted as B) | A (a compound having 10 or more and less than 20 is denoted as A) | –
4 | CCCN(C)C(=O)[C@@H]1CC(=O)N(C)[C@@H](CC2CC2)C(=O)N[C@@H]([C@@H](C)CC)C(=O)N(C)CC(=O)N(C)[C@H]2C/C=C\CCN(C2=O)[C@@H](Cc2ccc(C(F)(F)F)cc2)C(=O)N(C)CC(=O)N[C@@H](CCc2cc(F)c(C(F)(F)F)c(F)c2)C(=O)N2C[C@H](OCC)C[C@H]2C(=O)NC2(CCC2)C(=O)N(C)[C@@H](C2CCCC2)C(=O)N1C [PP1388] | 8.8 | – | – | HRAS /KRAS (HRAS wild-type protein; ratio of KD with respect to HRAS wild-type protein to KD with respect to KRAS): B (a compound having 3 or more and less than 10 is denoted as B); NRAS /KRAS ([2]; ratio of KD with respect to GDP-bound NRAS wild-type protein to KD with respect to KRAS): A (a compound having 10 or more and less than 20 is denoted as A)
5 | CC[C@H](C)[C@@H]1NC(=O)[C@H](CC(C)C)N(C)C(=O)C[C@@H](C(=O)N2CCOCC2)N(C)C(=O)[C@H](C2CCCC2)N(C)C(=O)C2(CCCC2)NC(=O)[C@@H]2CCCN2C(=O)[C@H](CCc2ccc(C(F)(F)F)c(Cl)c2)NC(=O)CN(C)C(=O)[C@H](Cc2ccc(C(F)(F)F)cc2)N(CCCF)C(=O)[C@@H]2CCN2C(=O)[C@H](C)N(C)C1=O [PP0525] ([NMeL]I[NMeA][Aze][X19][Sar][hPhe(3-Cl-4-CF3)]P[Ac5c][NMeGly(cPent)][NMeD]-Morpholide; lactam N-11) | 2.1 | – | – | HRAS /KRAS (HRAS wild-type protein; [7]): B (a compound having 3 or more and less than 10 is denoted as B); NRAS /KRAS [2, 8]: C (A compound having a KD ratio of 0.1 or more and less than 3 is denoted as C)
6 | CCCN1C(=O)[C@@H]2CCN2C(=O)[C@H](C)N(C)C(=O)[C@H]([C@@H](C)CC)NC(=O)[C@H](CC(F)(F)F)N(C)C(=O)C[C@@H](C(=O)N2CCOCC2)N(C)C(=O)[C@H](C2CCCC2)N(C)C(=O)C2(CCCC2)NC(=O)[C@@H]2CC(F)(F)CN2C(=O)[C@H](CCc2ccc(C(F)(F)F)c(Cl)c2)NC(=O)CN(C)C(=O)[C@@H]1Cc1ccc(C(F)(F)F)cc1 [PP0203] ([NMeAbu(4,4,4-F3)]I[NMeA][Aze][NPrPhe(4-CF3)][Sar][hPhe(3-Cl-4-CF3)][Pro(4,4-F2)][Ac5c][NMeGly(cPent)][NMeD]-Morpholide; lactam N-11) | 2.8 | C (A compound having a KD ratio of 0.1 or more and less than 3 is denoted as C) | C (A compound having a KD ratio of 0.1 or more and less than 3 is denoted as C) | –

Continued, in another order:

Row | IC50 [1] [nM] | Structure (SMILES) | HRAS /KRAS (HRAS wild-type protein; [3]) | NRAS /KRAS [2, 4] | further results
7 | 187 | CCC[C@H]1C(=O)N[C@@H]([C@@H](C)CC)C(=O)N(C)CC(=O)N(C)[C@H]2C/C=C\CCN(C2=O)[C@@H](Cc2ccc(C(F)(F)F)cc2)C(=O)N(C)CC(=O)N[C@@H](CCc2ccc(C(F)(F)F)c(OC)c2)C(=O)N2CC[C@H]2C(=O)NC2(CC(C)(C)C2)C(=O)N(C)[C@@H](C(CC)CC)C(=O)N(C)[C@H](C(=O)N(C)C)CC(=O)N1C [PP2936] | A (a compound having 10 or more and less than 20 is denoted as A) | AA (a compound having 20 or more is denoted as AA) | –
8 | 2.7 | C#CC[C@H]1C(=O)N[C@@H]([C@@H](C)CC)C(=O)N(C)CC(=O)N(C)[C@H]2C/C=C\CCN(C2=O)[C@@H](Cc2ccc(C(F)(F)F)cc2)C(=O)N(C)CC(=O)N[C@@H](CCc2cc(F)c(C(F)(F)F)c(F)c2)C(=O)N2C[C@H](OCC)C[C@H]2C(=O)NC2(CC(F)(F)C2)C(=O)N(C)[C@@H](C2CCCC2)C(=O)N(C)[C@H](C(=O)N(C)CCC)CC(=O)N1C [PP1737] | – | – | HRAS /KRAS (HRAS wild-type protein; [5]): A (a compound having 10 or more and less than 20 is denoted as A); NRAS /KRAS [2, 6]: A (a compound having 10 or more and less than 20 is denoted as A)
9 | 70.1 | CCO[C@@H]1C[C@H]2C(=O)NC3(CC(F)(F)C3)C(=O)N(C)[C@@H](C(CC)CC)C(=O)N3CCC[C@@H]3CC(=O)N(C)[C@@H](CC)C(=O)N[C@@H]([C@@H](C)CC)C(=O)N(C)CC(=O)N(C)[C@H]3C/C=C\CCN(C3=O)[C@@H](Cc3ccc(C(F)(F)F)cc3)C(=O)N(C)CC(=O)N[C@@H](CCc3cc(F)c(C(F)(F)F)c(F)c3)C(=O)N2C1 [PP1608] | – | – | HRAS /KRAS (HRAS wild-type protein; [5]): A (a compound having 10 or more and less than 20 is denoted as A); NRAS /KRAS [2, 6]: A (a compound having 10 or more and less than 20 is denoted as A)
10 | 6.6 | CCO[C@@H]1C[C@H]2C(=O)NC3(CC(C)(C)C3)C(=O)N(C)[C@@H](C3CCCC3)C(=O)N(C)[C@H](C(=O)N(C)CC)CC(=O)N(C)[C@@H](CC(C)C)C(=O)N[C@@H]([C@@H](C)CC)C(=O)NCC(=O)N(C)[C@H]3C/C=C\CCN(C3=O)[C@@H](Cc3ccc(C(F)(F)F)cc3)C(=O)N(C)CC(=O)N[C@@H](CCc3cc(F)c(C(F)(F)F)c(F)c3)C(=O)N2C1 [PP1771] | – | – | HRAS /KRAS (HRAS wild-type protein; [5]): A (a compound having 10 or more and less than 20 is denoted as A); NRAS /KRAS [2, 6]: A (a compound having 10 or more and less than 20 is denoted as A)
11 | 2.6 | CCC[C@H]1C(=O)N[C@@H]([C@@H](C)CC)C(=O)N2CCC[C@H]2C(=O)N(C)[C@H]2C/C=C\CCN(C2=O)[C@@H](Cc2ccc(C)cc2)C(=O)N(C)CC(=O)N[C@@H](CCc2cc(F)c(C(F)(F)F)c(F)c2)C(=O)N2C[C@H](OCC)C[C@H]2C(=O)N(C)C2(CCC2)C(=O)N(C)[C@@H](C2CCCC2)C(=O)N(C)[C@H](C(=O)N2CCCC2)CC(=O)N1C [PP3117] | A (a compound having 10 or more and less than 20 is denoted as A) | A (a compound having 10 or more and less than 20 is denoted as A) | –
12 | 28.1 | CCO[C@@H]1C[C@H]2C(=O)NC3(CCC3)C(=O)N(C)[C@@H](CC(C)(C)C)C(=O)N(C)[C@H](C(=O)N3CCCC3)CC(=O)N(C)[C@@H](CC)C(=O)N[C@@H]([C@@H](C)CC)C(=O)N(C)CC(=O)N(C)[C@H]3C/C=C\CCN(C3=O)[C@@H](CC3CCCCC3)C(=O)N(C)CC(=O)N[C@@H](CCc3cc(F)c(C(F)(F)F)c(F)c3)C(=O)N2C1 [PP2772] | B (a compound having 3 or more and less than 10 is denoted as B) | B (a compound having 3 or more and less than 10 is denoted as B) | –
13 | 85.4 | CCO[C@@H]1C[C@H]2C(=O)NC3(CC(F)(F)C3)C(=O)N(C)[C@@H](C(CC)CC)C(=O)N(C)C(C(C)C)CC(=O)N(C)[C@@H](CC)C(=O)N[C@@H]([C@@H](C)CC)C(=O)N(C)CC(=O)N(C)[C@H]3C/C=C\CCN(C3=O)[C@@H](Cc3ccc(C(F)(F)F)cc3)C(=O)N(C)CC(=O)N[C@@H](CCc3cc(F)c(C(F)(F)F)c(F)c3)C(=O)N2C1 (stereo partly drawn) [PP1591] | – | – | HRAS /KRAS (HRAS wild-type protein; [5]): A (a compound having 10 or more and less than 20 is denoted as A); NRAS /KRAS [2, 6]: A (a compound having 10 or more and less than 20 is denoted as A)
14 | 32.5 | CCCN1C(=O)CN(C)C(=O)CN(C)C(=O)[C@H]([C@@H](C)CC)NC(=O)[C@H](CC(C)C)N(C)C(=O)C[C@@H](C(=O)N2CCOCC2)N(C)C(=O)[C@H](C2CCCC2)N(C)C(=O)C2(CCC2)NC(=O)[C@@H]2CCCN2C(=O)[C@H](CCc2ccc(C(F)(F)F)c(Cl)c2)NC(=O)CN(CC)C(=O)[C@@H]1Cc1ccc(C(F)(F)F)cc1 [PP1950] ([NMeL]I[Sar][Sar][NPrPhe(4-CF3)][NEtG][hPhe(3-Cl-4-CF3)]P[Ac4c][NMeGly(cPent)][NMeD]-Morpholide; lactam N-11) | – | – | HRAS /KRAS (HRAS wild-type protein; [7]): C (A compound having a KD ratio of 0.1 or more and less than 3 is denoted as C); NRAS /KRAS [2, 8]: B (a compound having 3 or more and less than 10 is denoted as B)
